What was measured:
[1] = The drug is tested on Collinsella intestinalis strain: DSM13280 for biotransformation. The drug concentrations were measured before and after a 12-h incubation by liquid-chromatography-coupled mass spectrometry (LC–MS); conditions: 2 µM
[2] = The drug is tested on Alistipes indistinctus strain: DSM22520 for biotransformation. The drug concentrations were measured before and after a 12-h incubation by liquid-chromatography-coupled mass spectrometry (LC–MS); conditions: 2 µM
[3] = The drug is tested on Bacteroides coprophilus strain: DSM18228 for biotransformation. The drug concentrations were measured before and after a 12-h incubation by liquid-chromatography-coupled mass spectrometry (LC–MS); conditions: 2 µM
[4] = The drug is tested on Bacteroides fragilis strain: HMW610 for biotransformation. The drug concentrations were measured before and after a 12-h incubation by liquid-chromatography-coupled mass spectrometry (LC–MS); conditions: 2 µM
[5] = The drug is tested on Bacteroides fragilis strain: ATCC43859 for biotransformation. The drug concentrations were measured before and after a 12-h incubation by liquid-chromatography-coupled mass spectrometry (LC–MS); conditions: 2 µM
[6] = The drug is tested on Bacteroides ovatus strain: ATCC8483 for biotransformation. The drug concentrations were measured before and after a 12-h incubation by liquid-chromatography-coupled mass spectrometry (LC–MS); conditions: 2 µM
[7] = The drug is tested on Bacteroides pectinophilus strain: ATCC43243 for biotransformation. The drug concentrations were measured before and after a 12-h incubation by liquid-chromatography-coupled mass spectrometry (LC–MS); conditions: 2 µM
[8] = The drug is tested on Blautia luti strain: DSM14534 for biotransformation. The drug concentrations were measured before and after a 12-h incubation by liquid-chromatography-coupled mass spectrometry (LC–MS); format: ADME; design: dose 2 uM, timepoint 0 vs 12 hours; conditions: 2 µM
[9] = The drug is tested on Clostridium asparagiforme strain: DSM15981 for biotransformation. The drug concentrations were measured before and after a 12-h incubation by liquid-chromatography-coupled mass spectrometry (LC–MS); format: ADME; design: dose 2 uM, timepoint 0 vs 12 hours; conditions: enterocloster asparagiformis, 2 µM
[10] = The drug is tested on Clostridium symbiosum strain: ATCC14940 for biotransformation. The drug concentrations were measured before and after a 12-h incubation by liquid-chromatography-coupled mass spectrometry (LC–MS); conditions: 2 µM
[11] = The drug is tested on Coprococcus comes strain: ATCC27758 for biotransformation. The drug concentrations were measured before and after a 12-h incubation by liquid-chromatography-coupled mass spectrometry (LC–MS); format: ADME; design: dose 2 uM, timepoint 0 vs 12 hours; conditions: 2 µM
[12] = The drug is tested on Dorea formicigenerans strain: ATCC27755 for biotransformation. The drug concentrations were measured before and after a 12-h incubation by liquid-chromatography-coupled mass spectrometry (LC–MS); conditions: 2 µM
[13] = The drug is tested on Eubacterium rectale strain: ATCC33656 for biotransformation. The drug concentrations were measured before and after a 12-h incubation by liquid-chromatography-coupled mass spectrometry (LC–MS); conditions: agathobacter rectalis, 2 µM
[14] = The drug is tested on Ruminococcus torques strain: ATCC27756 for biotransformation. The drug concentrations were measured before and after a 12-h incubation by liquid-chromatography-coupled mass spectrometry (LC–MS); format: ADME; design: dose 2 uM, timepoint 0 vs 12 hours; conditions: 2 µM
[15] = The drug is tested on Subdoligranulum variabile strain: DSM15176 for biotransformation. The drug concentrations were measured before and after a 12-h incubation by liquid-chromatography-coupled mass spectrometry (LC–MS); conditions: 2 µM
[16] = The drug is tested on Edwardsiella tarda strain: ATCC23685 for biotransformation. The drug concentrations were measured before and after a 12-h incubation by liquid-chromatography-coupled mass spectrometry (LC–MS); conditions: 2 µM
[17] = The drug is tested on Enterobacter cancerogenus strain: ATCC35316 for biotransformation. The drug concentrations were measured before and after a 12-h incubation by liquid-chromatography-coupled mass spectrometry (LC–MS); conditions: 2 µM
[18] = bacteroides stercoris, 12 h, 2 µM
Description: The drug is tested on Bacteroides stercoris strain: ATCC43183 for biotransformation. The drug concentrations were measured before and after a 12-h incubation by liquid-chromatography-coupled mass spectrometry (LC–MS)

[19] = enterocloster bolteae, 12 h, 2 µM
Description: The drug is tested on Clostridium bolteae strain: ATCCBAA-613 for biotransformation. The drug concentrations were measured before and after a 12-h incubation by liquid-chromatography-coupled mass spectrometry (LC–MS)

[20] = The drug is tested on Parabacteroides merdae strain: ATCC43184 for biotransformation. The drug concentrations were measured before and after a 12-h incubation by liquid-chromatography-coupled mass spectrometry (LC–MS); conditions: 2 µM

CN1CCN(C(=O)O[C@H]2c3nccnc3C(=O)N2c2ccc(Cl)cn2)CC1 [ESZOPICLONE]
Bacterial Biotransformation [1]: Compound NOT metabolized
Bacterial Biotransformation [2]: Compound NOT metabolized
Bacterial Biotransformation [3]: Compound NOT metabolized
Bacterial Biotransformation [4]: Compound NOT metabolized
Bacterial Biotransformation [5]: Compound NOT metabolized
Bacterial Biotransformation [6]: Compound NOT metabolized
Bacterial Biotransformation [7]: Compound NOT metabolized
Bacterial Biotransformation [8]: Compound NOT metabolized
Bacterial Biotransformation [9]: Compound NOT metabolized
Bacterial Biotransformation [10]: Compound NOT metabolized
Bacterial Biotransformation [11]: Compound NOT metabolized
Bacterial Biotransformation [12]: Compound NOT metabolized
Bacterial Biotransformation [13]: Compound NOT metabolized
Bacterial Biotransformation [14]: Compound NOT metabolized
Bacterial Biotransformation [15]: Compound NOT metabolized
Bacterial Biotransformation [16]: Compound NOT metabolized
Bacterial Biotransformation [17]: Compound NOT metabolized
Bacterial Biotransformation [18]: Compound NOT metabolized
Bacterial Biotransformation [19]: Compound metabolized

CCCN1C[C@H](CSC)C[C@@H]2c3cccc4[nH]cc(c34)C[C@H]21.CS(=O)(=O)O [PERGOLIDE MESYLATE]
Bacterial Biotransformation [1]: Compound NOT metabolized
Bacterial Biotransformation [2]: Compound NOT metabolized
Bacterial Biotransformation [3]: Compound NOT metabolized
Bacterial Biotransformation [5]: Compound NOT metabolized
Bacterial Biotransformation [6]: Compound NOT metabolized
Bacterial Biotransformation [7]: Compound NOT metabolized
Bacterial Biotransformation [20]: Compound NOT metabolized
Bacterial Biotransformation [8]: Compound NOT metabolized
Bacterial Biotransformation [9]: Compound NOT metabolized
Bacterial Biotransformation [10]: Compound NOT metabolized
Bacterial Biotransformation [11]: Compound NOT metabolized
Bacterial Biotransformation [12]: Compound NOT metabolized
Bacterial Biotransformation [13]: Compound NOT metabolized
Bacterial Biotransformation [14]: Compound NOT metabolized
Bacterial Biotransformation [15]: Compound NOT metabolized
Bacterial Biotransformation [17]: Compound NOT metabolized
Bacterial Biotransformation [18]: Compound NOT metabolized
Bacterial Biotransformation [19]: Compound NOT metabolized

Br.COc1ccc2c(c1)[C@]13CCCC[C@@H]1[C@H](C2)N(C)CC3.O [DEXTROMETHORPHAN HYDROBROMIDE]
Bacterial Biotransformation [1]: Compound NOT metabolized
Bacterial Biotransformation [2]: Compound NOT metabolized
Bacterial Biotransformation [3]: Compound NOT metabolized
Bacterial Biotransformation [5]: Compound NOT metabolized
Bacterial Biotransformation [6]: Compound NOT metabolized
Bacterial Biotransformation [7]: Compound NOT metabolized
Bacterial Biotransformation [20]: Compound NOT metabolized
Bacterial Biotransformation [8]: Compound NOT metabolized
Bacterial Biotransformation [9]: Compound NOT metabolized
Bacterial Biotransformation [10]: Compound NOT metabolized
Bacterial Biotransformation [11]: Compound NOT metabolized
Bacterial Biotransformation [12]: Compound NOT metabolized
Bacterial Biotransformation [13]: Compound NOT metabolized
Bacterial Biotransformation [14]: Compound NOT metabolized
Bacterial Biotransformation [15]: Compound NOT metabolized
Bacterial Biotransformation [16]: Compound NOT metabolized
Bacterial Biotransformation [17]: Compound NOT metabolized
Bacterial Biotransformation [18]: Compound NOT metabolized
Bacterial Biotransformation [19]: Compound NOT metabolized

C[C@H]1O[C@@H](O[C@H]2[C@@H](O)C[C@H](O[C@H]3[C@@H](O)C[C@H](O[C@H]4CC[C@@]5(C)[C@H](CC[C@@H]6[C@@H]5C[C@@H](O)[C@]5(C)[C@@H](C7=CC(=O)OC7)CC[C@]65O)C4)O[C@@H]3C)O[C@@H]2C)C[C@H](O)[C@@H]1O [DIGOXIN]
Bacterial Biotransformation [1]: Compound NOT metabolized
Bacterial Biotransformation [2]: Compound NOT metabolized
Bacterial Biotransformation [3]: Compound metabolized
Bacterial Biotransformation [4]: Compound metabolized
Bacterial Biotransformation [5]: Compound metabolized
Bacterial Biotransformation [6]: Compound metabolized
Bacterial Biotransformation [7]: Compound NOT metabolized
Bacterial Biotransformation [20]: Compound metabolized
Bacterial Biotransformation [8]: Compound NOT metabolized
Bacterial Biotransformation [9]: Compound NOT metabolized
Bacterial Biotransformation [10]: Compound NOT metabolized
Bacterial Biotransformation [11]: Compound NOT metabolized
Bacterial Biotransformation [12]: Compound NOT metabolized
Bacterial Biotransformation [14]: Compound NOT metabolized
Bacterial Biotransformation [15]: Compound NOT metabolized
Bacterial Biotransformation [16]: Compound NOT metabolized
Bacterial Biotransformation [17]: Compound NOT metabolized
Bacterial Biotransformation [18]: Compound metabolized
Bacterial Biotransformation [19]: Compound NOT metabolized

COC(=O)C1=C(C)NC(C)=C(C(=O)OC(C)C)C1c1cccc2nonc12 (stereo not given) [ISRADIPINE]
Bacterial Biotransformation [1]: Compound NOT metabolized
Bacterial Biotransformation [2]: Compound NOT metabolized
Bacterial Biotransformation [3]: Compound NOT metabolized
Bacterial Biotransformation [4]: Compound NOT metabolized
Bacterial Biotransformation [5]: Compound NOT metabolized
Bacterial Biotransformation [6]: Compound NOT metabolized
Bacterial Biotransformation [7]: Compound NOT metabolized
Bacterial Biotransformation [20]: Compound NOT metabolized
Bacterial Biotransformation [8]: Compound NOT metabolized
Bacterial Biotransformation [9]: Compound NOT metabolized
Bacterial Biotransformation [10]: Compound NOT metabolized
Bacterial Biotransformation [11]: Compound NOT metabolized
Bacterial Biotransformation [12]: Compound NOT metabolized
Bacterial Biotransformation [14]: Compound NOT metabolized
Bacterial Biotransformation [15]: Compound NOT metabolized
Bacterial Biotransformation [16]: Compound NOT metabolized
Bacterial Biotransformation [17]: Compound NOT metabolized
Bacterial Biotransformation [18]: Compound NOT metabolized
Bacterial Biotransformation [19]: Compound NOT metabolized

CN(C(=O)CN(CCO)CC(=O)N(C)C(C)(C)Cc1ccccc1)C(C)(C)Cc1ccccc1 [OXETHAZAINE]
Bacterial Biotransformation [1]: Compound NOT metabolized
Bacterial Biotransformation [2]: Compound NOT metabolized
Bacterial Biotransformation [3]: Compound NOT metabolized
Bacterial Biotransformation [4]: Compound NOT metabolized
Bacterial Biotransformation [5]: Compound NOT metabolized
Bacterial Biotransformation [6]: Compound NOT metabolized
Bacterial Biotransformation [20]: Compound NOT metabolized
Bacterial Biotransformation [8]: Compound NOT metabolized
Bacterial Biotransformation [9]: Compound NOT metabolized
Bacterial Biotransformation [10]: Compound NOT metabolized
Bacterial Biotransformation [12]: Compound NOT metabolized
Bacterial Biotransformation [14]: Compound NOT metabolized
Bacterial Biotransformation [15]: Compound NOT metabolized
Bacterial Biotransformation [16]: Compound NOT metabolized
Bacterial Biotransformation [17]: Compound NOT metabolized
Bacterial Biotransformation [18]: Compound NOT metabolized

From ChEMBL document CHEMBL5303573, “Mapping human microbiome drug metabolism by gut bacteria and their genes” (Nature, 2019)
